According to patent publication US10487068B2, “Pyridazine derivatives as RORc modulators” (Genentech, Inc., priority 2015, dated 2019):

Target: T1, RORc ligand binding domain (Homo sapiens, UniProt P51449)
T1 sequence (P51449 269-508 limits assumed): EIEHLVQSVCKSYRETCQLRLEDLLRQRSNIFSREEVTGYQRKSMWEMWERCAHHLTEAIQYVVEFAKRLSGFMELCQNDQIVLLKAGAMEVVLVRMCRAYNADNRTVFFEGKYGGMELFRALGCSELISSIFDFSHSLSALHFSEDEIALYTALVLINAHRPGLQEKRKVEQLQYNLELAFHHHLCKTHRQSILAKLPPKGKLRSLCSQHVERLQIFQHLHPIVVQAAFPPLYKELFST
Assay: In Vitro RORc Ligand Binding Assay
Conditions: RORc IC50, radioligand 25-[3H]hydroxycholesterol 6 nM; 0.6 ug/mL RORc receptor; 3 h at 25° C.

| IC50 [µM] | Structure (SMILES) |
| --- | --- |
| 0.0085 | CC1(C)[C@H]2CC[C@]1(c1cncc(-c3c[nH]c(=O)[nH]3)n1)c1nnc(-c3c(F)cccc3F)cc12 [Example 174, 4-(6-((5R,8S)-3-(2,6-difluorophenyl)-9,9-dimethyl-5,6,7,8-tetrahydro-5,8-methanocinnolin-8-yl)pyrazin-2-yl)-1H-imidazol-2(3H)-one] |
| 0.0134 | Cc1ncc(-c2ccnc([C@@]34CC[C@@H](c5cc(-c6c(F)cccc6F)nnc53)C4(C)C)c2)o1 [Example 175] |
| 0.0129 | COC(=O)c1nc(C)cc([C@@]23CC[C@@H](c4cc(-c5c(F)cccc5F)nnc42)C3(C)C)n1 [Example 176] |
| 0.0244 | CC1(C)[C@H]2CC[C@]1(c1cc(N)ncc1Cl)c1nnc(-c3c(F)cccc3F)cc12 [Example 177, 5-chloro-4-((5R,8S)-3-(2,6-difluorophenyl)-9,9-dimethyl-5,6,7,8-tetrahydro-5,8-methanocinnolin-8-yl)pyridin-2-amine] |
| 0.0278 | Cc1nnc(-c2nccc([C@@]34CC[C@@H](c5cc(-c6c(F)cccc6F)nnc53)C4(C)C)n2)[nH]1 [Example 178] |
| 0.015 | CC1(C)[C@H]2CC[C@]1(c1cccc(-c3n[nH]c(=O)[nH]3)n1)c1nnc(-c3c(F)cccc3F)cc12 [Example 179, 3-(6-((5R,8S)-3-(2,6-difluorophenyl)-9,9-dimethyl-5,6,7,8-tetrahydro-5,8-methanocinnolin-8-yl)pyridin-2-yl)-1H-1,2,4-triazol-5(4H)-one] |
| 0.028 | CC1(C)[C@H]2CC[C@]1(c1ccnc(-c3nnc(CO)[nH]3)n1)c1nnc(-c3c(F)cccc3F)cc12 [Example 180] |
| 0.0037 | CC1(C)[C@H]2CC[C@]1(c1ccnc(-n3ccnc3)n1)c1nnc(-c3c(F)cccc3F)cc12 [Example 181] |
| 0.0042 | CC1(C)[C@H]2CC[C@]1(c1ccnc(-n3cncn3)n1)c1nnc(-c3c(F)cccc3F)cc12 [Example 182] |
| 0.0156 | CNS(=O)(=O)c1nccc([C@@]23CC[C@@H](c4cc(-c5c(F)cccc5F)nnc42)C3(C)C)n1 [Example 183] |
| 0.0033 | CC1(C)[C@H]2CC[C@]1(c1cncc(-c3cnco3)n1)c1nnc(-c3c(F)cccc3F)cc12 [Example 184, 5-(6-((5R,8S)-3-(2,6-difluorophenyl)-9,9-dimethyl-5,6,7,8-tetrahydro-5,8-methanocinnolin-8-yl)pyrazin-2-yl)oxazole] |
| 0.0305 | CC1(C)[C@H]2CC[C@]1(c1cncc(=O)[nH]1)c1nnc(-c3c(F)cccc3F)cc12 [Example 185, 6-((5R,8S)-3-(2,6-difluorophenyl)-9,9-dimethyl-5,6,7,8-tetrahydro-5,8-methanocinnolin-8-yl)pyrazin-2(1H)-one] |
| 0.0264 | COC(=O)c1ncc(Br)c([C@@]23CC[C@@H](c4cc(-c5c(F)cccc5F)nnc42)C3(C)C)n1 [Example 187] |
| 0.0075 | CC1(C)[C@H]2CC[C@]1(c1ccnc(-n3ccnn3)n1)c1nnc(-c3c(F)cccc3F)cc12 [Example 188] |
| 0.0148 | CC1(C)[C@H]2CC[C@]1(c1ccnc(-n3nccn3)n1)c1nnc(-c3c(F)cccc3F)cc12 [Example 189] |
| 0.0136 | CC1(C)[C@H]2CC[C@]1(c1ccnc(S(=O)(=O)NCCO)n1)c1nnc(-c3c(F)cccc3F)cc12 [Example 190] |
| 0.0246 | CC1(C)[C@H]2CC[C@]1(c1cccc(S(=O)(=O)NCC3(O)COC3)n1)c1nnc(-c3c(F)cccc3F)cc12 [Example 191, 6-((5R,8S)-3-(2,6-difluorophenyl)-9,9-dimethyl-5,6,7,8-tetrahydro-5,8-methanocinnolin-8-yl)-N-((3-hydroxyoxetan-3-yl)methyl)pyridine-2-sulfonamide] |
| 0.124 | CC1(C)[C@H]2CC[C@]1(c1ccnc(C#N)c1C#N)c1nnc(-c3c(F)cccc3F)cc12 [Example 192, 4-((5R,8S)-3-(2,6-difluorophenyl)-9,9-dimethyl-5,6,7,8-tetrahydro-5,8-methanocinnolin-8-yl)pyridine-2,3-dicarbonitrile] |
| 0.0577 | CC1(C)[C@H]2CC[C@]1(c1nc(C(=O)NCCO)ncc1Br)c1nnc(-c3c(F)cccc3F)cc12 [Example 193] |

| IC50 [µM] | Structure (SMILES) |
| --- | --- |
| 0.0242 | CC1(C)[C@H]2CC[C@]1(c1cncc(C(=O)NCCO)c1)c1nnc(-c3c(F)cccc3F)cc12 [Example 194, 5-((5R,8S)-3-(2,6-difluorophenyl)-9,9-dimethyl-5,6,7,8-tetrahydro-5,8-methanocinnolin-8-yl)-N-(2-hydroxyethyl)nicotinamide] |
| 0.0063 | CC1(C)[C@H]2CC[C@]1(c1cncc(-n3cncn3)n1)c1nnc(-c3c(F)cccc3F)cc12 [Example 195] |
| 0.0065 | CC(C)(O)c1coc(-c2cncc([C@@]34CC[C@@H](c5cc(-c6c(F)cccc6F)nnc53)C4(C)C)n2)n1 [Example 196, 2-(2-(6-((5R,8S)-3-(2,6-difluorophenyl)-9,9-diimethyl-5,6,7,8-tetrahydro-5,8-methanocinnolin-8-yl)pyrazin-2-yl)oxazol-4-yl)propan-2-ol] |
| 0.014 | CC1(C)[C@H]2CC[C@]1(c1cncc(C(=O)N[C@H]3C[C@](C)(O)C3)n1)c1nnc(-c3c(F)cccc3F)cc12 [Example 197, 6-((5R,8S)-3-(2,6-difluorophenyl)-9,9-dimethyl-5,6,7,8-tetrahydro-5,8-methanocinnolin-8-yl)-N-((1r,3S)-3-hydroxy-3-methylcyclobutyl)pyrazine-2-carboxamide] |
| 0.0261 | CC(C)(O)CNS(=O)(=O)c1cccc([C@@]23CC[C@@H](c4cc(-c5c(F)cccc5F)nnc42)C3(C)C)n1 [Example 198, 6-((5R,8S)-3-(2,6-difluorophenyl)-9,9-dimethyl-5,6,7,8-tetrahydro-5,8-methanocinnolin-8-yl)-N-(2-hydroxy-2-methylpropyl)pyridine-2-sulfonamide] |
| 0.0094 | CC1(C)[C@H]2CC[C@]1(c1cccc(S(=O)(=O)NC3(CO)COC3)n1)c1nnc(-c3c(F)cccc3F)cc12 [Example 199, 6-((5R,8S)-3-(2,6-difluorophenyl)-9,9-dimethyl-5,6,7,8-tetrahydro-5,8-methanocinnolin-8-yl)-N-(3-(hydroxymethyl)oxetan-3-yl)pyridine-2-sulfonamide] |
| 0.0117 | C[C@@H](O)CNS(=O)(=O)c1cccc([C@@]23CC[C@@H](c4cc(-c5c(F)cccc5F)nnc42)C3(C)C)n1 [Example 200, 6-((5R,8S)-3-(2,6-difluorophenyl)-9,9-dimethyl-5,6,7,8-tetrahydro-5,8-methanocinnolin-8-yl)-N-((R)-2-hydroxypropyl)pyridine-2-sulfonamide] |
| 0.0334 | C[C@H](O)CNS(=O)(=O)c1cccc([C@@]23CC[C@@H](c4cc(-c5c(F)cccc5F)nnc42)C3(C)C)n1 [Example 201, 6-((5R,8S)-3-(2,6-difluorophenyl)-9,9-dimethyl-5,6,7,8-tetrahydro-5,8-methanocinnolin-8-yl)-N-((S)-2-hydroxypropyl)pyridine-2-sulfonamide] |
| 0.0108 | CC1(C)[C@H]2CC[C@]1(c1cncc(-n3cc[nH]c3=O)n1)c1nnc(-c3c(F)cccc3F)cc12 [Example 202, 1-(6-((5R,8S)-3-(2,6-difluorophenyl)-9,9-dimethyl-5,6,7,8-tetrahydro-5,8-methanocinnolin-8-yl)pyrazin-2-yl)-1H-imidazol-2(3H)-one] |
| 0.0243 | CC(C)(O)c1nnc(-c2cncc([C@@]34CC[C@@H](c5cc(-c6c(F)cccc6F)nnc53)C4(C)C)n2)[nH]1 [Example 203, 2-(5-(6-((5R,8S)-3-(2,6-difluorophenyl)-9,9-dimethyl-5,6,7,8-tetrahydro-5,8-methanocinnolin-8-yl)pyrazin-2-yl)-4H-1,2,4-triazol-3-yl)propan-2-ol] |
| 0.0746 | CC1(C)[C@H]2CC[C@]1(c1cncc(NC(=O)NCCO)n1)c1nnc(-c3c(F)cccc3F)cc12 [Example 204, 1-(6-((5R,8S)-3-(2,6-difluorophenyl)-9,9-dimethyl-5,6,7,8-tetrahydro-5,8-methanocinnolin-8-yl)pyrazin-2-yl)-3-(2-hydroxyethyl)urea] |
| 0.0104 | CC1(C)[C@H]2CC[C@]1(c1cncc(-c3cn[nH]c3)n1)c1nnc(-c3c(F)cccc3F)cc12 [Example 205] |
| 0.0067 | CC1(C)[C@H]2CC[C@]1(c1cncc(-c3cnc(CO)o3)n1)c1nnc(-c3c(F)cccc3F)cc12 [Example 206, (5-(6-((5R,8S)-3-(2,6-difluorophenyl)-9,9-dimethyl-5,6,7,8-tetrahydro-5,8-methanocinnolin-8-yl)pyrazin-2-yl)oxazol-2-yl)methanol] |
| 0.0038 | CC1(C)[C@H]2CC[C@]1(c1cccc(-c3cnc(CO)o3)n1)c1nnc(-c3c(F)cccc3F)cc12 [Example 207, (5-(6-((5R,8S)-3-(2,6-difluorophenyl)-9,9-dimethyl-5,6,7,8-tetrahydro-5,8-methanocinnolin-8-yl)pyridin-2-yl)oxazol-2-yl)methanol] |
| 0.0036 | Cc1cn(-c2nccc([C@@]34CC[C@@H](c5cc(-c6c(F)cccc6F)nnc53)C4(C)C)n2)cn1 [Example 208] |
| 0.0152 | Cc1ncc(-c2cnc(C)c([C@@]34CC[C@@H](c5cc(-c6c(F)cccc6F)nnc53)C4(C)C)n2)o1 [Example 209, 5-(6-((5R,8S)-3-(2,6-difluorophenyl)-9,9-dimethyl-5,6,7,8-tetrahydro-5,8-methanocinnolin-8-yl)-5-methylpyrazin-2-yl)-2-methyloxazole] |
| 0.114 | CC1(C)[C@H]2CC[C@]1(c1cc(C#N)nc(C#N)c1)c1nnc(-c3c(F)cccc3F)cc12 [Example 210, 4-((5R,8S)-3-(2,6-difluorophenyl)-9,9-dimethyl-5,6,7,8-tetrahydro-5,8-methanocinnolin-8-yl)pyridine-2,6-dicarbonitrile] |
| 0.0088 | CC1(C)[C@H]2CC[C@]1(c1ccnc(-n3cccn3)n1)c1nnc(-c3c(F)cccc3F)cc12 [Example 211] |
| 0.0281 | Cc1ncn(-c2nccc([C@@]34CC[C@@H](c5cc(-c6c(F)cccc6F)nnc53)C4(C)C)n2)n1 [Example 212] |
